# PubChem BioAssay AID1963959 (Molecular Pharmacology Branch, DTP, NCI, 2024)
# Tested on: T-47D spheroids with HUVEC/MSC, viability
# Test: Anticancer human tumor T-47D cell line growth inhibition [PI3K];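 also: spheroids exposed to agents for seven days before reading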;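 as to viability, T/C: percent of DMSO vehicle control luminescence so 100% = untreated growth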
# Settings: for IC50: curve of first compound; for viability, T/C: stronger effect = lower value
# How it was run: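 Spheroid viability read-out. Co-cultures contained the tumor line plus HUVEC and human MSCs. Each agent was paired with a PI3K inhibitor (inavolisib, alpelisib, duvelisib, copanlisib) across half-log dilutions starting at clinical Cmax, or at 10 microM when Cmax was unknown.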
# [1] = second compound 0.0316 µM, first compound 0.0316 µM
# [2] = second compound 0.0316 µM, first compound 0.1 µM
# [3] = second compound 0.0316 µM, first compound 0.316 µM
# [4] = second compound 0.0316 µM, first compound 1 µM
# [5] = second compound 0.1 µM, first compound 0.0316 µM
# [6] = second compound 0.1 µM, first compound 0.1 µM
# [7] = second compound 0.1 µM, first compound 0.316 µM
# [8] = second compound 0.1 µM, first compound 1 µM
# [9] = second compound 0.316 µM, first compound 0.0316 µM
# [10] = second compound 0.316 µM, first compound 0.1 µM
# [11] = second compound 0.316 µM, first compound 0.316 µM
# [12] = second compound 0.316 µM, first compound 1 µM
# [13] = second compound 1 µM, first compound 0.0316 µM
# [14] = second compound 1 µM, first compound 0.1 µM
# [15] = second compound 1 µM, first compound 0.316 µM
# [16] = second compound 1 µM, first compound 1 µM
# [17] = second compound 3.16 µM, first compound 0.0316 µM
# [18] = second compound 3.16 µM, first compound 0.1 µM
# [19] = second compound 3.16 µM, first compound 0.316 µM
# [20] = second compound 3.16 µM, first compound 1 µM
# [21] = second compound 10 µM, first compound 0.0316 µM
# [22] = second compound 10 µM, first compound 0.1 µM
# [23] = second compound 10 µM, first compound 0.316 µM
# [24] = second compound 10 µM, first compound 1 µM
# [25] = second compound 0.0316 µM, first compound 3.16 µM
# [26] = second compound 0.0316 µM, first compound 10 µM
# [27] = second compound 0.1 µM, first compound 3.16 µM
# [28] = second compound 0.1 µM, first compound 10 µM
# [29] = second compound 0.316 µM, first compound 3.16 µM
# [30] = second compound 0.316 µM, first compound 10 µM
# [31] = second compound 1 µM, first compound 3.16 µM
# [32] = second compound 1 µM, first compound 10 µM
# [33] = second compound 3.16 µM, first compound 3.16 µM
# [34] = second compound 3.16 µM, first compound 10 µM
# [35] = second compound 10 µM, first compound 3.16 µM
# [36] = second compound 10 µM, first compound 10 µM
structure (smiles),measurement,setting,value
CCN1CCN(Cc2ccc(Nc3ncc(F)c(-c4cc(F)c5nc(C)n(C(C)C)c5c4)n3)nc2)CC1 + CC(Nc1ncnc2nc[nH]c12)c1cc2cccc(Cl)c2c(=O)n1-c1ccccc1,IC50,second compound 0.0316 µM,> 1 µM
same,IC50,second compound 0.1 µM,> 1 µM
same,IC50,second compound 0.316 µM,> 1 µM
same,IC50,second compound 1 µM,> 1 µM
same,IC50,second compound 3.16 µM,> 1 µM
same,IC50,second compound 10 µM,> 1 µM
same,"viability, T/C","second compound 0.0316 µM, first compound 0.00316 µM",107%
same,"viability, T/C","second compound 0.0316 µM, first compound 0.01 µM",97.2%
same,"viability, T/C",[1],91.7%
same,"viability, T/C",[2],74.7%
same,"viability, T/C",[3],95.7%
same,"viability, T/C",[4],94.5%
same,"viability, T/C","second compound 0.1 µM, first compound 0.00316 µM",114%
same,"viability, T/C","second compound 0.1 µM, first compound 0.01 µM",87.1%
same,"viability, T/C",[5],81.8%
same,"viability, T/C",[6],96%
same,"viability, T/C",[7],88.5%
same,"viability, T/C",[8],92.3%
same,"viability, T/C","second compound 0.316 µM, first compound 0.00316 µM",103%
same,"viability, T/C","second compound 0.316 µM, first compound 0.01 µM",98.5%
same,"viability, T/C",[9],82.6%
same,"viability, T/C",[10],78.8%
same,"viability, T/C",[11],93.6%
same,"viability, T/C",[12],106%
same,"viability, T/C","second compound 1 µM, first compound 0.00316 µM",112%
same,"viability, T/C","second compound 1 µM, first compound 0.01 µM",93.2%
same,"viability, T/C",[13],91%
same,"viability, T/C",[14],84.1%
same,"viability, T/C",[15],89.7%
same,"viability, T/C",[16],106%
same,"viability, T/C","second compound 3.16 µM, first compound 0.00316 µM",93.5%
same,"viability, T/C","second compound 3.16 µM, first compound 0.01 µM",80.9%
same,"viability, T/C",[17],85.6%
same,"viability, T/C",[18],77.2%
same,"viability, T/C",[19],89.9%
same,"viability, T/C",[20],85.9%
same,"viability, T/C","second compound 10 µM, first compound 0.00316 µM",77.7%
same,"viability, T/C","second compound 10 µM, first compound 0.01 µM",89.4%
same,"viability, T/C",[21],82.2%
same,"viability, T/C",[22],72.8%
same,"viability, T/C",[23],71.9%
same,"viability, T/C",[24],82.1%
Cn1ncc(Cl)c1-c1cc(C(=O)NC(CN)Cc2cccc(F)c2)sc1Cl (stereo unspecified) + CC(Nc1ncnc2nc[nH]c12)c1cc2cccc(Cl)c2c(=O)n1-c1ccccc1,IC50,second compound 0.0316 µM,> 10 µM
same,IC50,second compound 0.1 µM,> 10 µM
same,IC50,second compound 0.316 µM,> 10 µM
same,IC50,second compound 1 µM,> 10 µM
same,IC50,second compound 3.16 µM,> 10 µM
same,IC50,second compound 10 µM,> 10 µM
same,"viability, T/C",[1],101%
same,"viability, T/C",[2],101%
same,"viability, T/C",[3],84.2%
same,"viability, T/C",[4],76.6%
same,"viability, T/C",[25],64.2%
same,"viability, T/C",[26],66.6%
same,"viability, T/C",[5],100%
same,"viability, T/C",[6],79.2%
same,"viability, T/C",[7],80.2%
same,"viability, T/C",[8],76.9%
same,"viability, T/C",[27],70.8%
same,"viability, T/C",[28],66.6%
same,"viability, T/C",[9],104%
same,"viability, T/C",[10],89.1%
same,"viability, T/C",[11],91.5%
same,"viability, T/C",[12],68.1%
same,"viability, T/C",[29],72.4%
same,"viability, T/C",[30],68.3%
same,"viability, T/C",[13],103%
same,"viability, T/C",[14],94.7%
same,"viability, T/C",[15],81.2%
same,"viability, T/C",[16],67.1%
same,"viability, T/C",[31],58.7%
same,"viability, T/C",[32],74.1%
same,"viability, T/C",[17],82.9%
same,"viability, T/C",[18],99.3%
same,"viability, T/C",[19],79.9%
same,"viability, T/C",[20],57.6%
same,"viability, T/C",[33],72.8%
same,"viability, T/C",[34],69.1%
same,"viability, T/C",[21],97.8%
same,"viability, T/C",[22],92.2%
same,"viability, T/C",[23],77.5%
same,"viability, T/C",[24],68.4%
same,"viability, T/C",[35],66.9%
same,"viability, T/C",[36],71.4%
Cn1nccc1Nc1nccc(-c2ccn(C(CO)c3ccc(Cl)c(F)c3)c(=O)c2)n1 (stereo unspecified) + CC(Nc1ncnc2nc[nH]c12)c1cc2cccc(Cl)c2c(=O)n1-c1ccccc1,IC50,second compound 0.0316 µM,> 10 µM
same,IC50,second compound 0.1 µM,> 10 µM
same,IC50,second compound 0.316 µM,> 10 µM
same,IC50,second compound 1 µM,> 10 µM
same,IC50,second compound 3.16 µM,> 10 µM
same,IC50,second compound 10 µM,> 10 µM
same,"viability, T/C",[1],114%
same,"viability, T/C",[2],91.8%
same,"viability, T/C",[3],116%
same,"viability, T/C",[4],103%
same,"viability, T/C",[25],115%
same,"viability, T/C",[26],90.4%
same,"viability, T/C",[5],109%
same,"viability, T/C",[6],99.9%
same,"viability, T/C",[7],99.2%
same,"viability, T/C",[8],85.5%
same,"viability, T/C",[27],104%
same,"viability, T/C",[28],81%
same,"viability, T/C",[9],80.2%
same,"viability, T/C",[10],96.7%
same,"viability, T/C",[11],87.5%
same,"viability, T/C",[12],88.8%
same,"viability, T/C",[29],118%
same,"viability, T/C",[30],83.5%
same,"viability, T/C",[13],88.4%
same,"viability, T/C",[14],108%
same,"viability, T/C",[15],98.4%
same,"viability, T/C",[16],113%
same,"viability, T/C",[31],111%
same,"viability, T/C",[32],84.2%
same,"viability, T/C",[17],101%
same,"viability, T/C",[18],97.6%
same,"viability, T/C",[19],97.6%
same,"viability, T/C",[20],85.5%
same,"viability, T/C",[33],108%
same,"viability, T/C",[34],96.3%
same,"viability, T/C",[21],97.1%
same,"viability, T/C",[22],84.1%
same,"viability, T/C",[23],95.8%
same,"viability, T/C",[24],94%
same,"viability, T/C",[35],125%
same,"viability, T/C",[36],73.9%
